Source: publication PMC8448819, “The Arabidopsis MIK2 receptor elicits immunity by sensing a conserved signature from phytocytokines and microbes” (Nature Communications, 2021)

Tests used:
[1] = system: Arabidopsis WT (Col-0) seedlings; assay type: in vivo, Arabidopsis thaliana
[2] = system: bik1/pbl1 mutant seedlings; experiment: Root growth assay, bik1/pbl1 mutant; assay type: in vivo, Arabidopsis thaliana; settings: bik1/pbl1, 1 µM
Source text: (§1) The Arabidopsis thaliana accession Columbia-0 (Col-0) was used as wild type (WT). T-DNA insertion mutants of mik2-1 (SALK_061769), mik2-2 (SALK_046987), mik2-like (SALK_112341), and rlk7-3 (SALK_120595) were obtained from the Nottingham Arabidopsis Stock Centre (NASC). The fls2 (SALK_141277), bak1-4, bik1-1/pbl1-1, bak1-5/serk4-1, rbohd mutants, and the transgenic line expressing p35S::GFP have been reported previously[19],[62],[63]. The hae/hsl2 mutant was kindly provided by Dr. Reidunn B. Aalen (University of Oslo, Norway), the pepr1-2/pepr2-2 (pepr1,2) mutant by Dr. Zhi Qi (Inner Mongolia University, China), the scoop12 mutant by Dr. Sébastien Aubourg (INRA, France), a transgenic line expressing p35S::Aequorin by Dr. Marc Knight (Durham University, UK), transgenic line expressing pMYB51::GUS by Dr. Frederick M. Ausubel (Harvard Medical School, USA). […]
(§2) Cold stratified seeds were surface-sterilized with 70% (v/v) ethanol for 5 min and were sown on ½MS plates with or without peptides at indicated concentrations. Ten-day-old seedlings grown on plates vertically in a growth chamber were photographed, and the root lengths of seedlings were measured using Image J (http://rsb.info.nih.gov/ij/).

[3] = system: mik2-like, rlk7, pepr1,2, hae/hsl2 and fls2 mutant seedlings; experiment: Root growth assay, other receptor kinase mutants; assay type: in vivo, Arabidopsis thaliana; settings: Supplementary Fig. 4c
Source text: as §1, §2

[4] = system: MPK3, MPK4 and MPK6 phosphorylation, WT seedlings; experiment: MAPK assay (α-pERK1/2 immunoblot), WT; assay type: in vivo, Arabidopsis thaliana; settings: Supplementary Fig. 3i
Method: Ten-day-old seedlings grown vertically on ½MS plates were transferred to ddH2O overnight for recovery. Then, ddH2O was replaced by 100 nM peptides for the indicated time.

Arabidopsis leaf disks = experiment: Ethylene production; assay type: in vivo, Arabidopsis thaliana; settings: Fig. 2j, leaf disks of 4-week-old plants, peptides at 1 µM, 23 °C, 4 h, GC-FID
Method: Twelve leaves of 4-week-old plants grown on soil were excised into leaf disks of 0.25 cm^2, followed by overnight incubation in a 25 mL glass vial with 2 mL of ddH2O for recovery. Then, ddH2O was replaced by 1 mL of peptides at 1 µM, and the vials were capped immediately with a rubber stopper and incubated at 23 °C with gentle agitation for 4 h. One mL of the vial headspace was injected into a TRACE^TM 1310 Gas Chromatograph (Thermo Fisher Scientific) with FID supported by Chromeleon 7 for quantitation.

[5] = system: WRKY30, WRKY33 and CYP81F2 expression, mik2 seedlings; experiment: RT-qPCR of defense genes, mik2 mutants; assay type: in vivo, Arabidopsis thaliana
MIK2-BAK1 association = experiment: Co-immunoprecipitation MIK2-BAK1; assay type: cell-based, Arabidopsis thaliana; settings: co-IP
Method: For co-IP assays in protoplasts, protoplasts were co-transfected with pHBT-35S::MIK2-HA and pHBT-35S::BAK1-FALG or pHBT-35S::SERK4-FLAG at 50 μg DNA for 500 μL protoplasts at the density of 2 × 10^5/mL for each sample and were incubated for 12 h. After treatment with 1 µM SCOOP peptides for 15 min, samples were collected by centrifugation at 200 × g for 2 min and lysed in 300 μL IP buffer (20 mM Tris-HCl, pH 7.5, 100 mM NaCl, 1 mM EDTA, 2 mM DTT, 10% [v/v] Glycerol, 0.5% [v/v] Triton X-100 and protease inhibitor cocktail from Sigma) by vortexing. After centrifugation at 10,000 × g for 10 min at 4 °C, 30 μL of supernatant was collected for input controls. The remaining supernatant was pre-incubated with protein-G-agarose beads at 4 °C for 1 h with gentle shaking at […] on a rocker. IP was carried out with α-FLAG agarose for 3 h at 4 °C. Beads were collected by 500 × g centrifugation for 2 min and washed three times with washing buffer (20 mM Tris-HCl, pH 7.5, 100 mM NaCl, 1 mM EDTA, 0.1% [v/v] Triton X-100) and once with 50 mM Tris-HCl, pH 7.5. Immunoprecipitated proteins and input proteins were analyzed by immunoblotting with α-HA (1:3000; Roche, Cat # 12013819001) or α-FLAG antibodies (1:3000; Sigma-Aldrich, Cat # A8592).
For co-IP assays in transgenic seedlings, leaves of 4-week-old pMIK2::MIK2-GFP transgenic plants were hand-inoculated with 1 μM SCOOP10^B or SCOOP12 and were treated for 30 min, followed by total protein isolation with extraction buffer (50 mM Tris-HCl, pH 7.5, 150 mM NaCl, 1% [v/v] NP-40 and 1:200 protease inhibitor cocktail from Sigma). Co-IP was carried out the same as for co-IP with protoplasts except that GFP-Trap agarose beads (Chromotek) were used instead. Immunoprecipitated proteins and input proteins were analyzed by immunoblotting with α-GFP (1:3500; Roche, Cat # 11814460001) or α-BAK1 antibodies (1:2000)[64].

BIK1 = BIK1 phosphorylation assay; assay type: cell-based, Arabidopsis thaliana; settings: protoplasts expressing BIK1-HA, 1 μM, 15 min, mobility shift
Method: WT protoplasts were transfected with pHBT-35S::BIK1-HA for 12 h followed by treatment with 1 μM SCOOP peptides for 15 min.

PNGDIFTGPSGSGHGGGR [SCOOP10B, synthesized SCOOP peptide corresponding to the SxS motif]
root growth retardation, concentration series, WT ([1]; 1 to 100 nM SCOOP10^B): more pronounced with the increased concentrations of SCOOP10^B from 1 to 100 nM
concentration at which still active ([1]; in vivo): 1 nM
root growth inhibition ([1]; in vivo): inhibited root growth to various degrees, with SCOOP10^B and 13 being the most active
root growth inhibition in bik1/pbl1 [2]: significantly compromised in the bik1/pbl1 mutant
response of fls2 ([3]; fls2, root growth): responded to SCOOP10^B similarly to WT plants
response of MIK2L, RLK7, PEPR1, PEPR2, HAE and HSL2 mutants ([3]; root growth): not involved in responsiveness to SCOOP10^B
MAPK activation in shoots and roots [4]: triggered the MAPK activation in both shoots and roots
ethylene production (Arabidopsis leaf disks; repeat 1): 2.0449 ppm
ethylene production (Arabidopsis leaf disks; repeat 2): 1.4942 ppm
ethylene production (Arabidopsis leaf disks; repeat 3): 1.8726 ppm
CYP81F2 expression (Fig. 3i) ([5]; mik2-1, repeat 1): 1.45
CYP81F2 expression (Fig. 3i) ([5]; mik2-1, repeat 2): 1.97
CYP81F2 expression (Fig. 3i) ([5]; mik2-1, repeat 3): 3.18
CYP81F2 expression (Fig. 3i) ([5]; mik2-1, repeat 4): 1.68
CYP81F2 expression (Fig. 3i) ([5]; mik2-2, repeat 1): 1.42
CYP81F2 expression (Fig. 3i) ([5]; mik2-2, repeat 2): 2.13
CYP81F2 expression (Fig. 3i) ([5]; mik2-2, repeat 3): 3.67
CYP81F2 expression (Fig. 3i) ([5]; mik2-2, repeat 4): 5.95
WRKY30, WRKY33 and CYP81F2 expression ([5]; mik2 mutants, 1 µM, 1 h, RT-qPCR): abolished in mik2 mutants
MIK2-BAK1 association (MIK2-BAK1 association; pMIK2::MIK2-GFP/mik2 leaves, 1 μM, 30 min): stimulated upon the treatment
MIK2-BAK1 association in protoplasts (MIK2-BAK1 association; protoplasts, MIK2-HA and BAK1-FLAG, 15 min): also observed in protoplasts
BIK1 phosphorylation (BIK1): led to the phosphorylation of BIK1
